Experimental data published in US20070259894A1, “Use of Atazanavir for Improving the Pharmacokinetics of Drugs Metabolized by Ugt1a1” (priority 2004, published 2007).
Where two headings read alike, the source gives them in different places.

Assays:
[1] = test system: glucuronidation of Compound A by rat liver microsomes; test: Inhibition by atazanavir of glucuronidation of Compound A by rat liver microsomes; assay type: biochemical; conditions: atazanavir at a concentration of 50 μM
Procedure: The IC50 value of atazanavir for inhibition of glucuronidation of Compound A by human liver microsomes was determined using a pool of human liver microsomes (obtained from Xenotech LLC, Lenexa, Kans.). Compound A (as the potassium salt) was added to human liver microsomes (1.0 mg/mL) in a buffer consisting of 0.1 M potassium phosphate buffer (pH=7.4), 5 mM magnesium chloride, 10 μg/mL alamethicin, and 10 mM D-saccharic acid 1,4-lactone. The mixture of Compound A and the buffered microsomes (0.5 mL) was incubated at Compound A's Km (200 μM). UDPGA was added to the incubated sample to a concentration of 4 mM to initiate the glucuronidation reaction, which was stopped after 25 minutes (37° C.) with 2 volumes (i.e., 1 mL) of acetonitrile containing 1.5 μM of Compound B as an internal standard for the subsequent LC/MS analysis. Each of the samples was then centrifuged and the resulting supernatant was diluted 1:1 with 0.1% formic acid in water and a 10 μL aliquot was injected onto the LC/MS to determine the amount of glucuronide formation. […]
The IC50 value of atazanavir for inhibition of glucuronidation of Compound A in the presence of rat liver microsomes was determined using a procedure similar to that just described above for human liver microsomes.

[2] = Hygroscopicity by vapor sorption analysis; assay type: physicochemical; conditions: equilibrated at 95% RH at 25° C.
Procedure: Hygroscopicity data was obtained on a VTI Symmetrical Vapor Sorption Analyzer Model SGA-1. Data was collected at room temperature from 5-95% relative humidity and back, 5% relative humidity change per step. Equilibrium conditions were 0.01 weight percent change in 5 minutes with a maximum equilibration time of 180 minutes. […] When equilibrated back down to 5% RH, the material returned back to approximately its dry weight.

[3] = In vivo human studies: plasma PK of Compound A with and without atazanavir; design: species or system healthy human male volunteers; conditions: for half-life: male, plasma, oral, read-out: alpha phase half-life (converted)
Procedure: The protocol was a 2-period, fixed sequence study in healthy human male volunteers to examine the influence of multiple doses of atazanavir on a single dose of Compound A. In Period 1, 12 subjects received a single oral dose of 100 mg of Compound A (i.e., a tablet as described in Part B of Example 3) (N=10) or placebo (N=2). In Period 2, the same 12 subjects were administered 400 mg atazanavir once daily in an open-label fashion (capsules) for 9 days. On Day 7, the subjects were administered atazanavir in combination with a single oral dose of 100 mg of Compound A (tablet) or placebo (the same subjects received placebo in both study periods). All doses were administered following a moderate-fat meal. Plasma PK samples were collected for 72 hours following the dose of Compound A in both periods.
Sample preparation and analysis: The plasma samples were extracted using 96-well liquid-liquid extraction. Plasma extracts were injected onto an Ace C18 (50×3.0 mm, 3 μm, titanium rits) HPLC column and analyzed under isocratic conditions with a mobile phase consisting of 42.5/57.5 (v/v %) 0.1 mM EDTA in 0.1% formic acid/methanol, at a flow rate of 0.5 mL/minute. The sample extracts were ionized using an APCI interface and were monitored by MRM in the positive ionization mode. The dynamic range of the LC/MS/MS assay was 2-1000 ng/mL based on a 200 μL aliquot of human plasma.
PK Calculations: Area under the curve for a plot of plasma concentration v. time to last detectable concentration (AUC0-last), was calculated using a non-compartmental model and the Linear Up/Log Down calculation method in WinNonlin Version 4.1. Data points after Cmax were fitted to a biexponential equation (A*exp(−αt)+B*exp(−βt)) using WinNonlin v4.1, and AUC values were extrapolated to infinity according to the following equation: […]=AUC0-last+Clast/β, where Clast is the last detectable concentration and β comes from the above-noted biexponential equation. Observed maximum plasma concentration (Cmax), time of Cmax (Tmax), and plasma concentration at 12 hr post dosing (C12hr) were determined by inspection.

[4] = In vivo rat studies: plasma levels of Compound A with and without atazanavir; design: species or system Male Sprague-Dawley rats; conditions: for AUC / Cmax: male, Sprague-Dawley, plasma
Procedure: Male Sprague-Dawley rats (4 rats/group) weighing approximately 300 grams each were given orally either 0.5% methylcellulose in water (control group) or atazanavir in 0.5% methylcellulose once a day for three days. The atazanavir daily doses were 50 mg/kg and were administered in 0.5% methylcellulose at 5 mL/kg. On day four the control rats were dosed with 10 mg/kg of Compound A in the form of a potassium salt in 0.5% methylcellulose while the treatment group received atazanavir followed by an oral dose of 10 mg/kg of Compound A (as potassium salt) in 0.5% methylcellulose. Blood samples were taken from all rats in treatment and control groups at 0, 0.25, 0.5, 1, 2, 4, 6, 8, and 24 hours post dose on day 4. Plasma levels of Compound A were determined by LC-MS/MS as follows:
UDP-glucuronosyltransferase activity was determined by measuring the formation of the glucuronide of Compound A. HPLC analysis was carried out on an Agilent HP 1100 gradient system using the following parameters: column=Phenomenex Luna C18-2 (2 mm×150 mm, 5 μm); mobile phase=0.1% formic acid in water (solvent A) and 0.1% formic acid in acetonitrile (solvent B); flow rate=0.2 mL/min; procedure=the initial solvent composition of 10% B was increased to 80% B over 10 minutes, followed by holding solvent B constant at 80% for 3 minutes, and then returning to initial conditions for 6 minutes. The HPLC system was interfaced with a Finnigan TSQ Quantum tandem mass spectrometer. Mass spectral analyses were carried out using electrospray ionization (ESI) in the positive ion mode. The temperature for the ion transfer tube was 320° C. and the ESI ionizing voltage was maintained at 4.4 kV for all analyses. Tandem mass spectrometry (MS/MS) was based on collision-induced dissociation (CID) of ions entering the rf-only octapole region where argon was used as the collision gas at a pressure of 0.8 mtorr. A collision offset at −22 eV was used for MS/MS analyses. The CID transitions used were m/z=621.1→445.1 (Compound A glucuronide) and 431.2→306.1 (Compound B).

[5] = single oral 100 mg Compound A tablet, atazanavir 400 mg once daily, moderate-fat meal
[6] = Compound A control group, oral 10 mg/kg (K salt), no atazanavir
[7] = oral Compound A 10 mg/kg (K salt) on day 4 with oral atazanavir 50 mg/kg once a day

**Q.** For `COC(=O)N[C@H](C(=O)N[C@@H](Cc1ccccc1)[C@@H](O)CN(Cc1ccc(-c2ccccn2)cc1)NC(=O)[C@@H](NC(=O)OC)C(C)(C)C)C(C)(C)C` (relative stereo) [atazanavir, [3S-(3R*, 8′R*, 9′R*, 12R*)]-3,12-bis(1,1-dimethylethyl)-8-hydroxy-4,11-dioxo-9-(phenylmethyl)-6-[[4-(2-pyridinyl)phenylmethyl]2,5,6,10,13-pentaazatetradecanedioic] acid, dimethyl ester], which “inhibition of the glucuronidation of Compound A” value [1] is on record?
**A.** Its value is 41%.

**Q.** With `Cc1nnc(C(=O)NC(C)(C)c2nc(C(=O)NCc3ccc(F)cc3)c([O-])c(=O)n2C)o1.[K+]` as the compound, how does the “weight increase (hygroscopicity)” value [2] read?
**A.** The value was 1.8%.

**Q.** Which results are given for `Cc1nnc(C(=O)NC(C)(C)c2nc(C(=O)NCc3ccc(F)cc3)c(O)c(=O)n2C)o1` [Compound A, N-(4-fluorobenzyl)-5-hydroxy-1-methyl-2-(1-methyl-1-{[(5-methyl-1,3,4-oxadiazol-2-yl)carbonyl]amino}ethyl)-6-oxo-1,6-dihydroxypyrimidine-4-carboxamide]?
**A.** half-life ([3]; 100 mg Compound A alone): 1.1 h; half-life ([3]; 100 mg Compound A in the presence of atazanavir 400 mg once daily): 1.4 h; AUC0-last GMR in the presence versus absence of atazanavir [3, 5]: 1.73; Cmax GMR in the presence versus absence of atazanavir [3, 5]: 1.53; geometric mean ratio (GMR) 12 hr concentration in the presence versus absence of atazanavir [3, 5]: 1.96; increase of plasma levels of Compound A by atazanavir ([4]; atazanavir 50 mg/kg plus Compound A 10 mg/kg versus Compound A alone): about 3 fold; AUC [4, 6]: 2.9 ± 0.6 µM·h; Cmax [4, 6]: 2.3 ± 0.9 µM; AUC [4, 7]: 9.9 ± 3.7 µM·h; Cmax [4, 7]: 7.2 ± 6.1 µM
